Measurements taken from the CheMixHub viscosity set.

Assay: xn = mol fraction of the nth substance listed

CC1CCCCC1 + CCC(C)O
viscosity [mPa·s], 100 kPa
Conditions	x1 = 0.0811	x1 = 0.16	x1 = 0.24	x1 = 0.35	x1 = 0.4401	x1 = 0.56	x1 = 0.6501	x1 = 0.7401	x1 = 0.8492	x1 = 0.94
293.15 K	2.84	2.24	1.78	1.36	1.15	0.99	0.95	0.92	0.87	0.79
298.15 K	2.4	1.91	1.53	1.17	–	0.88	0.84	0.81	0.79	0.74
303.15 K	2.02	1.63	1.31	1.02	0.88	0.79	0.76	0.74	0.73	0.69
308.15 K	1.72	1.42	1.18	0.95	0.83	0.74	0.71	0.69	0.67	0.64
313.15 K	1.48	1.23	1.04	0.85	0.76	0.69	0.67	0.65	0.63	0.6
318.15 K	1.27	1.07	0.91	0.76	0.69	0.64	0.62	0.61	0.59	0.56
323.15 K	1.11	0.94	0.81	0.69	0.63	0.59	0.58	0.58	0.56	0.53

CCCCCl + CCC(C)O
viscosity [mPa·s], 101 kPa
Conditions	x1 = 0.0997	x1 = 0.1976	x1 = 0.3052	x1 = 0.4049	x1 = 0.497	x1 = 0.606	x1 = 0.7022	x1 = 0.8053	x1 = 0.9038
298.15 K	1.98	1.379	1.015	0.8086	0.6823	0.5809	0.5176	0.469	0.4366
313.15 K	1.234	0.9264	0.7261	0.6063	0.5279	0.4628	0.4198	0.3877	0.3663

CCCNCCC + CCC(C)O
303.15 K, 101 kPa
Conditions	viscosity [mPa·s]
x1 = 0.009464	2.442
x1 = 0.02067	2.411
x1 = 0.03223	2.381
x1 = 0.04172	2.358
x1 = 0.04996	2.336
x1 = 0.05928	2.313
x1 = 0.07049	2.286
x1 = 0.08687	2.251
x1 = 0.09038	2.238

CCCCCCCCCl + CCCCC
298 K, 101.3 kPa
Conditions	viscosity [mPa·s]
x2 = 0.1047	0.9664
x2 = 0.2064	0.8559
x2 = 0.3057	0.7414
x2 = 0.4042	0.6389
x2 = 0.5005	0.5441
x2 = 0.6018	0.4631
x2 = 0.7019	0.3926
x2 = 0.8048	0.324
x2 = 0.8982	0.2747

C1=CCCCC1 + CCCCCC
303.15 K, 101 kPa
Conditions	viscosity [mPa·s]
x1 = 0.1718	0.348
x1 = 0.2792	0.365
x1 = 0.3914	0.387
x1 = 0.5249	0.418
x1 = 0.5946	0.438
x1 = 0.6859	0.464
x1 = 0.8067	0.503
x1 = 0.9032	0.536

CC1CCCCC1 + CCCCCC
viscosity [mPa·s], 101 kPa
Conditions	293.15 K	298.15 K	303.15 K	308.15 K
x1 = 0.0401	0.3176	0.3005	0.2736	–
x1 = 0.1041	–	–	0.3003	–
x1 = 0.1042	–	0.334	0.318	0.301
x1 = 0.2002	0.3482	0.3336	0.3072	–
x1 = 0.202	–	–	0.3216	–
x1 = 0.2026	–	0.359	0.341	0.323
x1 = 0.2772	0.3681	0.3511	0.3256	–
x1 = 0.3005	–	–	0.3476	–
x1 = 0.301	–	0.373	0.354	0.335
x1 = 0.3562	0.3915	0.3713	0.3477	–
x1 = 0.3972	–	–	0.375	–
x1 = 0.4018	–	0.401	0.378	0.359
x1 = 0.4196	0.4131	0.3895	0.3654	–
x1 = 0.5015	–	–	0.4074	–
x1 = 0.5026	–	0.433	0.41	0.387
x1 = 0.5574	–	–	0.4286	–
x1 = 0.5875	0.4812	0.4512	0.4227	–
x1 = 0.6024	–	0.473	0.446	0.42
x1 = 0.6173	–	–	0.4495	–
x1 = 0.6796	0.5261	0.49	0.46	–
x1 = 0.7021	–	0.517	0.487	0.457
x1 = 0.7645	0.5729	0.5323	0.5001	–
x1 = 0.8006	–	–	0.5303	–
x1 = 0.8016	–	0.573	0.539	0.504
x1 = 0.8397	0.6187	0.5725	0.5388	–
x1 = 0.9002	–	–	0.5837	–
x1 = 0.9011	–	0.624	0.585	0.545
x1 = 0.9198	0.6688	0.6221	0.5865	–

CCOC(=O)c1ccccc1 + CCCCCC
101 kPa
Conditions	viscosity [mPa·s]
298.15 K, x2 = 0.0271	1.845
298.15 K, x2 = 0.1115	1.528
298.15 K, x2 = 0.1588	1.375
298.15 K, x2 = 0.2058	1.242
298.15 K, x2 = 0.3029	1.008
298.15 K, x2 = 0.3991	0.828
298.15 K, x2 = 0.4898	0.688
298.15 K, x2 = 0.5921	0.57
298.15 K, x2 = 0.6377	0.527
298.15 K, x2 = 0.6782	0.491
298.15 K, x2 = 0.7316	0.456
298.15 K, x2 = 0.773	0.426
298.15 K, x2 = 0.8227	0.394
298.15 K, x2 = 0.8654	0.371
298.15 K, x2 = 0.9101	0.354
298.15 K, x2 = 0.9517	0.341
303.15 K, x1 = 0.0927	0.329
303.15 K, x1 = 0.1853	0.38
303.15 K, x1 = 0.2811	0.448
303.15 K, x1 = 0.3781	0.531
303.15 K, x1 = 0.4761	0.634
303.15 K, x1 = 0.5765	0.764
303.15 K, x1 = 0.6794	0.93
303.15 K, x1 = 0.7852	1.147
303.15 K, x1 = 0.8902	1.41
308.15 K, x1 = 0.0927	0.315
308.15 K, x1 = 0.1853	0.366
308.15 K, x1 = 0.2811	0.429
308.15 K, x1 = 0.3781	0.508
308.15 K, x1 = 0.4761	0.603
308.15 K, x1 = 0.5765	0.72
308.15 K, x1 = 0.6794	0.877
308.15 K, x1 = 0.7852	1.065
308.15 K, x1 = 0.8902	1.303
308.15 K, x2 = 0.0828	1.413
308.15 K, x2 = 0.1328	1.29
308.15 K, x2 = 0.171	1.201
308.15 K, x2 = 0.2301	1.074
308.15 K, x2 = 0.2802	0.973
308.15 K, x2 = 0.3274	0.887
308.15 K, x2 = 0.3722	0.812
308.15 K, x2 = 0.4224	0.741
308.15 K, x2 = 0.4708	0.677
308.15 K, x2 = 0.5165	0.624
308.15 K, x2 = 0.5609	0.576
308.15 K, x2 = 0.6066	0.533
308.15 K, x2 = 0.6587	0.489
308.15 K, x2 = 0.7033	0.457
308.15 K, x2 = 0.7489	0.426
308.15 K, x2 = 0.7953	0.397
308.15 K, x2 = 0.8419	0.372
308.15 K, x2 = 0.8794	0.356
308.15 K, x2 = 0.9354	0.331
313.15 K, x1 = 0.0927	0.295
313.15 K, x1 = 0.1853	0.346
313.15 K, x1 = 0.2811	0.406
313.15 K, x1 = 0.3781	0.476
313.15 K, x1 = 0.4761	0.562
313.15 K, x1 = 0.5765	0.673
313.15 K, x1 = 0.6794	0.815
313.15 K, x1 = 0.7852	0.99
313.15 K, x1 = 0.8902	1.2
318.15 K, x2 = 0.0471	1.244
318.15 K, x2 = 0.1005	1.133
318.15 K, x2 = 0.149	1.036
318.15 K, x2 = 0.2038	0.939
318.15 K, x2 = 0.252	0.861
318.15 K, x2 = 0.3057	0.781
318.15 K, x2 = 0.352	0.718
318.15 K, x2 = 0.4057	0.652
318.15 K, x2 = 0.4516	0.602
318.15 K, x2 = 0.5027	0.55
318.15 K, x2 = 0.5475	0.51
318.15 K, x2 = 0.5991	0.47
318.15 K, x2 = 0.6439	0.439
318.15 K, x2 = 0.6933	0.41
318.15 K, x2 = 0.7382	0.387
318.15 K, x2 = 0.7869	0.364
318.15 K, x2 = 0.8296	0.346
318.15 K, x2 = 0.878	0.327
